# From patent publication EP2433948A1, “Use of a new class of nucleotide sugar as antibiotic or cytostatic agent” (Max-Planck-Gesellschaft zur Förderung der Wissenschaften …, priority 2010, dated 2012)
# pKi: −log10 of the molar value.
# Target: E. coli MurA (Escherichia coli, UniProt P0A749)
# Experiment: MurA activity/inhibition assay (phosphate release coupled to PNPase cleavage of fluorescent 7-methylguanosine)
# Type: biochemical
# Excerpt: • (a) MurA performs the first step of UDP-muramic acid biosynthesis. After sequential binding of UNAG and phosphoenolpyruvate, a tetrahedral intermediate is formed that yields enolpyruvyl-UNAG after cleavage of inorganic phosphate. UNAG-3P most likely mimics this tetrahedral intermediate and thereby inhibits MurA catalysis by a competitive binding mechanism. (b) Determination of the Ki of UNAG-3P for MurA. Enolpyruvyl-UNAG formation catalyzed by MurA from E. coli in presence of PEP and UNAG-3P and varying UNAG concentrations under steady state conditions. MurA enzyme kinetics were followed by coupling the reaction to phosphate dependent cleavage of fluorescent 7-methylguanosine by nucleoside phosphorylase resulting in a strong decrease of the fluorescence at 400 nm (λexc = 300 nm). The UNAG-3P concentrations for each saturation curve were 0 µM (●), 15 µM (□) and 30 µM (Δ). A Lineweaver-Burk plot is shown as inset.
# The enolpyruvyl activity of E. coli MurA was monitored by coupling phosphate release to cleavage of fluorescent 7-methylguanosine (Sigma) by bacterial purine-nucleoside phosphorylase (PNPase) (Sigma). […] The reactions were monitored by the decrease in fluorescence at 400 nm with excitation set to 300 nm in a FluoroMax-3 spectrofluorometer (HORIBA Jobin Yvon) with excitation and emission bandwidths of 5 nm. […]
# E. coli MurA, sequence (P0A749 whole entry): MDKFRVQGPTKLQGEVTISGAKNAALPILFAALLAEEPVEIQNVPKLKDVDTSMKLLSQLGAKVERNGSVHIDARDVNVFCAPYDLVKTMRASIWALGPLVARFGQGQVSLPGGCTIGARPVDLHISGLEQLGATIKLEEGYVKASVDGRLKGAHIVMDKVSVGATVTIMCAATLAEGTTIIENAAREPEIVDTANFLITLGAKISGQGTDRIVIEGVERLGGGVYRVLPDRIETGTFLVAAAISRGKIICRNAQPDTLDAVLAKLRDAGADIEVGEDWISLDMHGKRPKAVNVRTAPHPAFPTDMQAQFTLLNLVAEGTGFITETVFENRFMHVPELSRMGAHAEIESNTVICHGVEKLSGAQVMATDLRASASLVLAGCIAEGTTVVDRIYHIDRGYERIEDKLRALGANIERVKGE
compound,measurement,value
"CC(=O)N[C@H]1[C@@H](OP(=O)(O)OP(=O)(O)OC[C@H]2O[C@@H](n3ccc(=O)[nH]c3=O)[C@H](O)[C@@H]2O)O[C@H](CO)[C@@H](O)[C@@H]1OP(=O)(O)O [UNAG-3P, Uridinediphosphate-2-N-acetyl-3-phosphate-glucosamine]",pKi,5.15
